Entries after “also recorded” stand apart in the source; their conditions may differ.
Columns and labels:
MMP-1 = molecular target: T1, MMP-1 (Homo sapiens, UniProt P03956); assay: Fluorometric substrate assay (MMP inhibitor profiling kit); format: biochemical; settings: human recombinant MMP-1, 60 min preincubation, four-parameter fit
T1 construct: purchased Enzo life sciences BML-AK308
Experimental: (§1) Kit contained a panel of ten MMPs and a quenched fluorogenic substrate OMNIMMP® RED. Composition of a quenched fluorogenic substrate was TQ3-GABA-Pro-Cha-Abu-Smc-His-Ala-Dab(6’-TAMRA)-Ala-Lys-NH2 [TQ3 = quencher; GABA = 4-aminobutyric acid; Cha = L-cyclohexylalanine; Abu = 2-aminobutyric acid; Smc = S-methyl-L-cysteine; Dab = 2,4-diaminobutyric acid; 6’-TAMRA = 6’-tetramethylrhodamine]. Experiment was performed as per instructions provided in the manufacturer’s manual. The assays were performed in a 96-well, black, flat, microplate format. The compound NNGH was provided as a prototypic control inhibitor. […] Untreated MMPs were used as control. The experiment was performed in biological triplicates. After 60-min incubation, fluorogenic substrate OMNIMMP® RED was added to each reaction/well to start the reaction. The plate was continuously read at Ex/Em = 545/576 nm (cutoff at 570 nm) for 30 min with 1-min time intervals at constant temperature, 37 °C, using Molecular Devices SpectraMax M3 plate reader with SoftMax Pro 6.2 software.

MMP-12 = molecular target: T2, MMP-12 (Homo sapiens, UniProt P39900); assay: as above; format: biochemical; settings: human recombinant MMP-12, 60 min preincubation, four-parameter fit
T2 construct: purchased Enzo life sciences BML-AK308
T2 sequence (P39900 106-470): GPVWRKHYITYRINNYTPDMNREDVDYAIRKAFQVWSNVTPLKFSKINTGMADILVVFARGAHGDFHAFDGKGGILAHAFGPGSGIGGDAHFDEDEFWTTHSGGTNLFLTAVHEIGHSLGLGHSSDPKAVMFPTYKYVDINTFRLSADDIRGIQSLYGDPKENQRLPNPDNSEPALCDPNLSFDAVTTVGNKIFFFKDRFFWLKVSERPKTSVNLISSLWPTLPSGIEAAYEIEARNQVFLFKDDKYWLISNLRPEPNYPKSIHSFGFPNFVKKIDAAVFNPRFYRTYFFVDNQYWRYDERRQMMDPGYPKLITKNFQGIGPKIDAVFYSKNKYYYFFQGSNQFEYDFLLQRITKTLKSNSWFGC
Experimental: as §1

MMP-13 = molecular target: T3, MMP-13 (Homo sapiens, UniProt P45452); assay: as above; format: biochemical
T3 construct: purchased Enzo life sciences BML-AK308
Experimental: as §1

MMP-14 = molecular target: T4, MMP-14 (Homo sapiens, UniProt P50281); assay: as above; format: biochemical
T4 construct: purchased Enzo life sciences BML-AK308
Experimental: as §1

MMP-19 = molecular target: T5, MMP-19 (Homo sapiens, UniProt Q99542); assay: as above; format: biochemical; settings: human recombinant MMP-19, 60 min preincubation, four-parameter fit
T5 construct: purchased Enzo life sciences BML-AK308
T5 sequence (Q99542 98-508): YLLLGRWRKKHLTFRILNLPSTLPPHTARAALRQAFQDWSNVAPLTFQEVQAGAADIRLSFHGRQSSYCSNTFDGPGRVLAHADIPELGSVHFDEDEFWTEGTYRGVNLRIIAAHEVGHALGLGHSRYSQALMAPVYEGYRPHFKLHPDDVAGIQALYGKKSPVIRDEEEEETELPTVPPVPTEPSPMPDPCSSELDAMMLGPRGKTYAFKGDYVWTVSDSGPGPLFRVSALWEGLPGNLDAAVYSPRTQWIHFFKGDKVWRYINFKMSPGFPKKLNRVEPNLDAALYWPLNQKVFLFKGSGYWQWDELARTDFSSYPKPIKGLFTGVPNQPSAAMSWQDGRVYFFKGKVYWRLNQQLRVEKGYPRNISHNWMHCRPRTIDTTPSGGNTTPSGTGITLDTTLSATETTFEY
Experimental: as §1

MMP-3 = molecular target: T6, MMP-3 (Homo sapiens, UniProt P08254); assay: as above; format: biochemical; settings: human recombinant MMP-3, 60 min preincubation, four-parameter fit
T6 construct: purchased Enzo life sciences BML-AK308
T6 sequence (P08254 100-477): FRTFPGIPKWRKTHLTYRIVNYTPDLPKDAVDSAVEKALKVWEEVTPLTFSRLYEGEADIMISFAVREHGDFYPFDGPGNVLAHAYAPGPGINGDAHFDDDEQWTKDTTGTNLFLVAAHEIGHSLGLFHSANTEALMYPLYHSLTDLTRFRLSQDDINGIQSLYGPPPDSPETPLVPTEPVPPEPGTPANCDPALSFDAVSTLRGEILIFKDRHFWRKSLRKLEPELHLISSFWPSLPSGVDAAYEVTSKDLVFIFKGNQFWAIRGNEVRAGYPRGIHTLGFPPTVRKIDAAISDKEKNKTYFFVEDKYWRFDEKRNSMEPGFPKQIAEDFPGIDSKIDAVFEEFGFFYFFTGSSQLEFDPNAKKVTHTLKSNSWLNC
Experimental: as §1

MMP-7 = molecular target: T7, MMP-7 (Homo sapiens, UniProt P09237); assay: as above; format: biochemical; settings: human recombinant MMP-7, 60 min preincubation, four-parameter fit
T7 construct: purchased Enzo life sciences BML-AK308
T7 sequence (P09237 95-267): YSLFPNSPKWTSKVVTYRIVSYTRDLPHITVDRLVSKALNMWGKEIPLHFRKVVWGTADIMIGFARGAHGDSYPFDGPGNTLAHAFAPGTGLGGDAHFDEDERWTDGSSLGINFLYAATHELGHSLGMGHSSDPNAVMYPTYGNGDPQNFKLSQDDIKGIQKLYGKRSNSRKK
Experimental: as §1

MMP-8 = molecular target: T8, MMP-8 (Homo sapiens, UniProt P22894); assay: as above; format: biochemical
T8 construct: purchased Enzo life sciences BML-AK308
T8 sequence (P22894 101-467): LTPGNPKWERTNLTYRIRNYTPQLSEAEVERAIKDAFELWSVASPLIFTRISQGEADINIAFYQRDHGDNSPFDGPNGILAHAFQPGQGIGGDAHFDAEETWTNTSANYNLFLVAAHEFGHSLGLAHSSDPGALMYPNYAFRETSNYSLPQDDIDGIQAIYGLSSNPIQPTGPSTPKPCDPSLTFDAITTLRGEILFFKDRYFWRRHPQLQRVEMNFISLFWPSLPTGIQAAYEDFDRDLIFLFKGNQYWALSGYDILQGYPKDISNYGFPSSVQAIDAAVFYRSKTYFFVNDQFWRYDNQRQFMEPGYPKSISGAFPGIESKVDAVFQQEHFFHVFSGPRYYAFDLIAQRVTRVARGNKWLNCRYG
Experimental: as §1

THP-1 cells = assay: MTT cytotoxicity assay; format: cell-based; settings: THP-1 cells, 1, 10 or 100 µM, 18 h
Experimental: THP-1 cells were plated in 96-well plates at a density of 0.08 × 10^6 cells per well. […] Vehicle-treated cells were used as controls. For each treatment, twelve samples were utilized. Cells were washed with PBS and incubated with 100 μL/well of MTT solution (5 mg/mL) for 45 min at 37 °C. After incubation, MTT solution was removed, and DMSO (200 μL) was added to each well. Absorbance was measured at 490 nm on a Molecular Devices SpectraMax M3 plate reader with SoftMax […].2 software (Sunnyvale, CA). Absorbance was compared to that of control cells to determine cytotoxicity.

C3H/HeJ mice pups, brain = assay: Diffusion tensor imaging of pups; format: in vivo, mouse
Experimental: In vivo bioimaging (diffusion tensor imaging (DTI) and magnetic resonance spectroscopy (^1H MRS)) was performed using a 7 Tesla/16 cm Bruker PharmaScan or a 7 Tesla 21 cm Bruker Biospec (Karlsure, Germany) MRI/MRS system. At PND 28–34, DTI was performed on live mice pups to determine microstructural changes. Animals from both DTG- and vehicle-treated (control) groups were scanned. Pups (male and female) were randomly selected from each dam. As described in our previous work, a 4-segment echo planar imaging (EPI) readout with a balanced, rotationally invariant and alternating polarity icosahedral scheme (12 directions) and b value = 800 s/mm^2 were utilized. Diffusion Toolkit (http://trackvis.org/dtk/) was used to calculate DTI metrics, fractional anisotropy (FA). Region of interest (ROI) analysis was performed to measure DTI metrics on hippocampus (HI), cortex (CT), striatum (ST), thalamus (TH), hypothalamus (HY), and cerebellum (CE).

MMP-9 = MMP-9 (Homo sapiens, UniProt P14780); assay: Gelatin zymography of medium of PMA-stimulated THP-1 cells; format: cell-based; parameters: endogenous in cells; host or cells: PMA-stimulated THP-1 cells, culture medium; settings: 100 µM, 18 h, compared to controls
MMP-9, sequence (P14780 94-707): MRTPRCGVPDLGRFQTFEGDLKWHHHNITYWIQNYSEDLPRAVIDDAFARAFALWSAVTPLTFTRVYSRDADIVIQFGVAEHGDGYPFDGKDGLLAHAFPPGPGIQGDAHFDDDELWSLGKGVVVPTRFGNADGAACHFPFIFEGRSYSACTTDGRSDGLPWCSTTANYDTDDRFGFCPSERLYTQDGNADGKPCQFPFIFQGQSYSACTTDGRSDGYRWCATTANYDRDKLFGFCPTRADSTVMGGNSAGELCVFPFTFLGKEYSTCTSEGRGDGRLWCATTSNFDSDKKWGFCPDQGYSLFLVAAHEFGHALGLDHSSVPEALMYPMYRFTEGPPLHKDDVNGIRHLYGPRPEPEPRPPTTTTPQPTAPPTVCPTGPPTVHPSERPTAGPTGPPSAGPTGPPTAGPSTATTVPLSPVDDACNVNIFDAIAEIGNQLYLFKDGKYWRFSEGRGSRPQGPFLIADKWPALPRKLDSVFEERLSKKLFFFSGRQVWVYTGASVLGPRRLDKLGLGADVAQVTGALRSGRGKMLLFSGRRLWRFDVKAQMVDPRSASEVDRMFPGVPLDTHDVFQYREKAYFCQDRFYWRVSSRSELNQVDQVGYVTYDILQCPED
Experimental: THP-1 cells were plated in 12-well plates at a density of 1 × 10^6 cells per well. First, THP-1 were treated with phorbol-12-myristate-13-acetate (PMA) for 24 h to promote the differentiation of cells into macrophages and stimulate MMP secretion. […] For each treatment, biological triplicate samples were utilized. Following treatment, cell medium was collected from each well and centrifuged at 800 × g for 10 min at 4 °C to remove any cell debris. Collected samples were stored at − 80 °C for further analysis. A 10% SDS–polyacrylamide gel containing 0.1% gelatin was loaded with 3 µg of protein from cell medium for gelatin zymography. In parallel, second 10% SDS–polyacrylamide gel was used to assess equal protein loading. In addition, recombinant human MMP-2 and MMP-9 (10 ng each) were loaded as standards (EMD Millipore, Burlington, MA). Gel ran at 60 V until the loading dye reached the bottom of the gel. After the run, the gelatin gel was washed with water for 15 min and incubated in renaturation buffer [2.5% (v/v) Triton X-100 in Milli-Q water] for 60 min at room temperature. The renaturation buffer was replaced with a fresh renaturation buffer at the interval of 30 min. […] Relative activity of MMPs was measured by quantitating band density by ImageJ software and normalized with respective standard.

T1 sequence (P03956 100-469): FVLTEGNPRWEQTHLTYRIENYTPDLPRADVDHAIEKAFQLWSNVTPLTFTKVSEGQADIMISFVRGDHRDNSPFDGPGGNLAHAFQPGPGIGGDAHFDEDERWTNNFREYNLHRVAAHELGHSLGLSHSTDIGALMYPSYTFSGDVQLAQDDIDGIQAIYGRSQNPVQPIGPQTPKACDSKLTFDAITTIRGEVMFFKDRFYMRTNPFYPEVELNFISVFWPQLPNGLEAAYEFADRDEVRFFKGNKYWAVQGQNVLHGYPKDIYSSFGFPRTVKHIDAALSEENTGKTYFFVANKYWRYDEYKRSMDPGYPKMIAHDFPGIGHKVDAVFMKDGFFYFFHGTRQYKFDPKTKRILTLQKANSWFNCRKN

## C[C@@H]1CCO[C@H]2Cn3cc(C(=O)NCc4ccc(F)cc4F)c(=O)c(O)c3C(=O)N12 [DTG, Dolutegravir]
MMP-1
  IC50: 83.9 µM
MMP-12
  IC50: 131 µM
MMP-13; MMP-13, 20 µM
  inhibitory effect compared to doxycycline: higher inhibitory effect
MMP-13; human recombinant MMP-13, 60 min preincubation, four-parameter fit
  IC50: 36.5 µM
MMP-14; MMP-14, 20 µM
  inhibitory effect compared to doxycycline: higher inhibitory effect
MMP-14; human recombinant MMP-14, 60 min preincubation, four-parameter fit
  IC50: 10.5 µM
MMP-19
  IC50: 54 µM
MMP-3
  IC50: 60.3 µM
MMP-7
  IC50: 309 µM
MMP-8; MMP-8, 20 µM
  inhibitory effect compared to doxycycline: higher inhibitory effect
MMP-8; human recombinant MMP-8, 60 min preincubation, four-parameter fit
  IC50: 12.1 µM
THP-1 cells
  Cytotoxicity (cellular viability, MTT): Cytotoxicity was not observed at any concentration; also recorded: no DTG-induced cytotoxicity
C3H/HeJ mice pups, brain; PND 28-34, all six brain regions (HI, CT, ST, TH, HY, CE)
  fractional anisotropy (FA) values vs control: significantly lower
C3H/HeJ mice pups, brain; female pups, HI
  fractional anisotropy (FA) values vs control: trend of decrease
C3H/HeJ mice pups, brain; female pups, TH
  fractional anisotropy (FA) values vs control: significant reduction
C3H/HeJ mice pups, brain; male pups, HI, CT, ST and HY
  fractional anisotropy (FA) values vs control: significantly reduced
C3H/HeJ mice pups, brain; male pups, TH and CE
  fractional anisotropy (FA) values vs control: trend of reduced FA values
MMP-9
  Relative activity of pro form of MMP-9: significantly decreased
